# Test system: Colo205 cells
# Type: cell-based, human
compound,measurement,setting,value
O=C(/C=C\n1cnc(-c2cc(C(F)(F)F)cc(C(F)(F)F)c2)n1)NNc1cnccn1 [selinexor],"Differential protein expression, SCAF1",,100
same,"Differential protein expression, A2ML1","A8K2U0, selinexor-treated cytoplasm vs control cytoplasm",3.444
same,"Differential protein expression, PHF20L1","A8MW92, selinexor-treated cytoplasm vs control cytoplasm",0.01
same,"Differential protein expression, KPNA7","A9QM74, selinexor-treated cytoplasm vs control cytoplasm",0.149
same,"Differential protein expression, accession B2CWB5","B2CWB5 (gene symbol not given), selinexor-treated cytoplasm vs control cytoplasm",0.01
same,"Differential protein expression, m033R","B2CWE0, selinexor-treated cytoplasm vs control cytoplasm",0.01
same,"Differential protein expression, m047R","B2CWF4, selinexor-treated cytoplasm vs control cytoplasm",0.01
same,"Differential protein expression, m060R","B2CWG7, selinexor-treated cytoplasm vs control cytoplasm",0.01
same,"Differential protein expression, accession B2CWJ3","B2CWJ3 (gene symbol not given), selinexor-treated cytoplasm vs control cytoplasm",0.01
same,"Differential protein expression, accession B2CWL4","B2CWL4 (gene symbol not given), selinexor-treated cytoplasm vs control cytoplasm",100
same,"Differential protein expression, m149R","B2CWQ5, selinexor-treated cytoplasm vs control cytoplasm",100
same,"Differential protein expression, HNRNPCL2","B2RXH8, selinexor-treated cytoplasm vs control cytoplasm",2.92
same,"Differential protein expression, HNRNPCL3","B7ZW38, selinexor-treated cytoplasm vs control cytoplasm",2.963
same,"Differential protein expression, m107L","E2CZJ6, selinexor-treated cytoplasm vs control cytoplasm",100
same,"Differential protein expression, m126R","E2CZL5, selinexor-treated cytoplasm vs control cytoplasm",0.193
same,"Differential protein expression, m001R","E2CZP2, selinexor-treated cytoplasm vs control cytoplasm",3.839
same,"Differential protein expression, m009L","E2CZQ3, selinexor-treated cytoplasm vs control cytoplasm",0.01
same,"Differential protein expression, m055R","E2CZV0, selinexor-treated cytoplasm vs control cytoplasm",2.342
same,"Differential protein expression, m072L","E2CZW7, selinexor-treated cytoplasm vs control cytoplasm",3.124
same,"Differential protein expression, m086L","E2CZY1, selinexor-treated cytoplasm vs control cytoplasm",0.01
same,"Differential protein expression, AGRN","O00468, selinexor-treated cytoplasm vs control cytoplasm",0.494
same,"Differential protein expression, SDCBP","O00560, selinexor-treated cytoplasm vs control cytoplasm",2.743
same,"Differential protein expression, MPHOSPH10","O00566, selinexor-treated cytoplasm vs control cytoplasm",2.761
same,"Differential protein expression, UBE2C","O00762, selinexor-treated cytoplasm vs control cytoplasm",0.459
same,"Differential protein expression, SCD","O00767, selinexor-treated cytoplasm vs control cytoplasm",0.297
same,"Differential protein expression, M-T1","O10625, selinexor-treated cytoplasm vs control cytoplasm",3.839
same,"Differential protein expression, CLDN4","O14493, selinexor-treated cytoplasm vs control cytoplasm",10.645
same,"Differential protein expression, UTY","O14607, selinexor-treated cytoplasm vs control cytoplasm",0.01
same,"Differential protein expression, MEIS2","O14770, selinexor-treated cytoplasm vs control cytoplasm",0.01
same,"Differential protein expression, BACH1","O14867, selinexor-treated cytoplasm vs control cytoplasm",100
same,"Differential protein expression, IRF6","O14896, selinexor-treated cytoplasm vs control cytoplasm",2.466
same,"Differential protein expression, MYL12B","O14950, selinexor-treated cytoplasm vs control cytoplasm",2.249
same,"Differential protein expression, XPO1","O14980, selinexor-treated cytoplasm vs control cytoplasm",0.335
same,"Differential protein expression, MAPK13","O15264, selinexor-treated cytoplasm vs control cytoplasm",2.006
same,"Differential protein expression, DDX3Y","O15523, selinexor-treated cytoplasm vs control cytoplasm",100
same,"Differential protein expression, MAFG","O15525, selinexor-treated cytoplasm vs control cytoplasm",0.453
same,"Differential protein expression, CLDN3","O15551, selinexor-treated cytoplasm vs control cytoplasm",2.357
same,"Differential protein expression, SPINT1","O43278, selinexor-treated cytoplasm vs control cytoplasm",4.255
same,"Differential protein expression, KDELR3","O43731, selinexor-treated cytoplasm vs control cytoplasm",0.379
same,"Differential protein expression, ZBTB14","O43829, selinexor-treated cytoplasm vs control cytoplasm",0.01
same,"Differential protein expression, HNRNPCL1","O60812, selinexor-treated cytoplasm vs control cytoplasm",2.92
same,"Differential protein expression, NOS1AP","O75052, selinexor-treated cytoplasm vs control cytoplasm",0.01
same,"Differential protein expression, SIN3B","O75182, selinexor-treated cytoplasm vs control cytoplasm",0.01
same,"Differential protein expression, ZNF217","O75362, selinexor-treated cytoplasm vs control cytoplasm",2.042
same,"Differential protein expression, TAF5L","O75529, selinexor-treated cytoplasm vs control cytoplasm",100
same,"Differential protein expression, BANF1","O75531, selinexor-treated cytoplasm vs control cytoplasm",2.438
same,"Differential protein expression, PIAS2","O75928, selinexor-treated cytoplasm vs control cytoplasm",100
same,"Differential protein expression, ZFAND5","O76080, selinexor-treated cytoplasm vs control cytoplasm",0.48
same,"Differential protein expression, SUPT7L","O94864, selinexor-treated cytoplasm vs control cytoplasm",0.01
same,"Differential protein expression, HEXIM1","O94992, selinexor-treated cytoplasm vs control cytoplasm",3.29
same,"Differential protein expression, SVIL","O95425, selinexor-treated cytoplasm vs control cytoplasm",0.01
same,"Differential protein expression, NUDT3","O95989, selinexor-treated cytoplasm vs control cytoplasm",3.124
same,"Differential protein expression, DHFR","P00374, selinexor-treated cytoplasm vs control cytoplasm",0.419
same,"Differential protein expression, OAS1","P00973, selinexor-treated cytoplasm vs control cytoplasm",2.17
same,"Differential protein expression, TIMP1","P01033, selinexor-treated cytoplasm vs control cytoplasm",2.021
same,"Differential protein expression, CSTA","P01040, selinexor-treated cytoplasm vs control cytoplasm",3.956
same,"Differential protein expression, FOS","P01100, selinexor-treated cytoplasm vs control cytoplasm",0.01
same,"Differential protein expression, KRT14","P02533, selinexor-treated cytoplasm vs control cytoplasm",3.261
same,"Differential protein expression, KRT6A","P02538, selinexor-treated cytoplasm vs control cytoplasm",3.082
same,"Differential protein expression, APOD","P05090, selinexor-treated cytoplasm vs control cytoplasm",7.079
same,"Differential protein expression, S100A8","P05109, selinexor-treated cytoplasm vs control cytoplasm",3.524
same,"Differential protein expression, CENPB","P07199, selinexor-treated cytoplasm vs control cytoplasm",0.01
same,"Differential protein expression, PRSS2","P07478, selinexor-treated cytoplasm vs control cytoplasm",0.479
same,"Differential protein expression, HNRNPC","P07910, selinexor-treated cytoplasm vs control cytoplasm",2.948
same,"Differential protein expression, ASNS","P08243, selinexor-treated cytoplasm vs control cytoplasm",0.353
same,"Differential protein expression, NFIC","P08651, selinexor-treated cytoplasm vs control cytoplasm",0.01
same,"Differential protein expression, KRT16","P08779, selinexor-treated cytoplasm vs control cytoplasm",4.248
same,"Differential protein expression, TOP2A","P11388, selinexor-treated cytoplasm vs control cytoplasm",0.458
same,"Differential protein expression, CDK4","P11802, selinexor-treated cytoplasm vs control cytoplasm",0.445
same,"Differential protein expression, NEFH","P12036, selinexor-treated cytoplasm vs control cytoplasm",2.248
same,"Differential protein expression, CDH1","P12830, selinexor-treated cytoplasm vs control cytoplasm",4.064
same,"Differential protein expression, KRT10","P13645, selinexor-treated cytoplasm vs control cytoplasm",2.123
same,"Differential protein expression, KRT5","P13647, selinexor-treated cytoplasm vs control cytoplasm",2.042
same,"Differential protein expression, CD59","P13987, selinexor-treated cytoplasm vs control cytoplasm",2.269
same,"Differential protein expression, PLA2G2A","P14555, selinexor-treated cytoplasm vs control cytoplasm",2.128
same,"Differential protein expression, CCNB1","P14635, selinexor-treated cytoplasm vs control cytoplasm",0.377
same,"Differential protein expression, MYL6B","P14649, selinexor-treated cytoplasm vs control cytoplasm",2.392
same,"Differential protein expression, HNRNPL","P14866, selinexor-treated cytoplasm vs control cytoplasm",2.044
same,"Differential protein expression, GLUL","P15104, selinexor-treated cytoplasm vs control cytoplasm",2.48
same,"Differential protein expression, ATF2","P15336, selinexor-treated cytoplasm vs control cytoplasm",0.01
same,"Differential protein expression, FOSL2","P15408, selinexor-treated cytoplasm vs control cytoplasm",100
same,"Differential protein expression, H1-3","P16402, selinexor-treated cytoplasm vs control cytoplasm",14.354
same,"Differential protein expression, ZKSCAN1","P17029, selinexor-treated cytoplasm vs control cytoplasm",100
same,"Differential protein expression, SDC1","P18827, selinexor-treated cytoplasm vs control cytoplasm",2.678
same,"Differential protein expression, ATF1","P18846, selinexor-treated cytoplasm vs control cytoplasm",100
same,"Differential protein expression, MYL12A","P19105, selinexor-treated cytoplasm vs control cytoplasm",2.269
same,"Differential protein expression, IMPDH1","P20839, selinexor-treated cytoplasm vs control cytoplasm",0.485
same,"Differential protein expression, TGM1","P22735, selinexor-treated cytoplasm vs control cytoplasm",2.137
same,"Differential protein expression, MYL9","P24844, selinexor-treated cytoplasm vs control cytoplasm",2.253
same,"Differential protein expression, DNMT1","P26358, selinexor-treated cytoplasm vs control cytoplasm",0.424
same,"Differential protein expression, RBL1","P28749, selinexor-treated cytoplasm vs control cytoplasm",0.395
same,"Differential protein expression, GRN","P28799, selinexor-treated cytoplasm vs control cytoplasm",2.493
same,"Differential protein expression, KDM5A","P29375, selinexor-treated cytoplasm vs control cytoplasm",0.01
same,"Differential protein expression, SERPINB3","P29508, selinexor-treated cytoplasm vs control cytoplasm",34.048
same,"Differential protein expression, SLC7A1","P30825, selinexor-treated cytoplasm vs control cytoplasm",0.272
same,"Differential protein expression, S100A7","P31151, selinexor-treated cytoplasm vs control cytoplasm",2.547
same,"Differential protein expression, RRM2","P31350, selinexor-treated cytoplasm vs control cytoplasm",0.284
same,"Differential protein expression, CASP14","P31944, selinexor-treated cytoplasm vs control cytoplasm",2.655
same,"Differential protein expression, CDA","P32320, selinexor-treated cytoplasm vs control cytoplasm",2.571
same,"Differential protein expression, GBP1","P32455, selinexor-treated cytoplasm vs control cytoplasm",0.01
same,"Differential protein expression, KRT9","P35527, selinexor-treated cytoplasm vs control cytoplasm",0.486
same,"Differential protein expression, MYH9","P35579, selinexor-treated cytoplasm vs control cytoplasm",2.051
same,"Differential protein expression, MYH10","P35580, selinexor-treated cytoplasm vs control cytoplasm",2.213
same,"Differential protein expression, HSD17B2","P37059, selinexor-treated cytoplasm vs control cytoplasm",2.045
same,"Differential protein expression, FDFT1","P37268, selinexor-treated cytoplasm vs control cytoplasm",0.453
same,"Differential protein expression, PBX3","P40426, selinexor-treated cytoplasm vs control cytoplasm",0.01
same,"Differential protein expression, SLC1A4","P43007, selinexor-treated cytoplasm vs control cytoplasm",0.439
same,"Differential protein expression, MATR3","P43243, selinexor-treated cytoplasm vs control cytoplasm",5.731
same,"Differential protein expression, RFX3","P48380, selinexor-treated cytoplasm vs control cytoplasm",0.152
same,"Differential protein expression, SERPINB4","P48594, selinexor-treated cytoplasm vs control cytoplasm",5.894
same,"Differential protein expression, HNRNPA3","P51991, selinexor-treated cytoplasm vs control cytoplasm",2.069
same,"Differential protein expression, ZNF131","P52739, selinexor-treated cytoplasm vs control cytoplasm",0.01
same,"Differential protein expression, RBM5","P52756, selinexor-treated cytoplasm vs control cytoplasm",0.01
same,"Differential protein expression, PLK1","P53350, selinexor-treated cytoplasm vs control cytoplasm",0.01
same,"Differential protein expression, CEBPG","P53567, selinexor-treated cytoplasm vs control cytoplasm",0.01
same,"Differential protein expression, MAPK12","P53778, selinexor-treated cytoplasm vs control cytoplasm",2.006
same,"Differential protein expression, POLG","P54098, selinexor-treated cytoplasm vs control cytoplasm",0.27
same,"Differential protein expression, EPHB3","P54753, selinexor-treated cytoplasm vs control cytoplasm",0.496
same,"Differential protein expression, PKNOX1","P55347, selinexor-treated cytoplasm vs control cytoplasm",0.01
same,"Differential protein expression, MAZ","P56270, selinexor-treated cytoplasm vs control cytoplasm",0.01
same,"Differential protein expression, HDAC4","P56524, selinexor-treated cytoplasm vs control cytoplasm",0.458
same,"Differential protein expression, PCBP3","P57721, selinexor-treated cytoplasm vs control cytoplasm",2.306
same,"Differential protein expression, CKS1B","P61024, selinexor-treated cytoplasm vs control cytoplasm",0.422
same,"Differential protein expression, POLR2F","P61218, selinexor-treated cytoplasm vs control cytoplasm",2.135
same,"Differential protein expression, SNRPE","P62304, selinexor-treated cytoplasm vs control cytoplasm",2.173
same,"Differential protein expression, SNRPF","P62306, selinexor-treated cytoplasm vs control cytoplasm",2.172
same,"Differential protein expression, SNRPD1","P62314, selinexor-treated cytoplasm vs control cytoplasm",2.056
same,"Differential protein expression, SNRPD2","P62316, selinexor-treated cytoplasm vs control cytoplasm",2.406
same,"Differential protein expression, RHOB","P62745, selinexor-treated cytoplasm vs control cytoplasm",0.01
same,"Differential protein expression, ARF1","P84077, selinexor-treated cytoplasm vs control cytoplasm",2.133
same,"Differential protein expression, H3-3A; H3-3B","P84243, selinexor-treated cytoplasm vs control cytoplasm",3.295
same,"Differential protein expression, HSPG2","P98160, selinexor-treated cytoplasm vs control cytoplasm",0.441
same,"Differential protein expression, KRT24","Q2M2I5, selinexor-treated cytoplasm vs control cytoplasm",2.716
same,"Differential protein expression, SMU1","Q2TAY7, selinexor-treated cytoplasm vs control cytoplasm",2.21
same,"Differential protein expression, KRT71","Q3SY84, selinexor-treated cytoplasm vs control cytoplasm",4.935
same,"Differential protein expression, COA6","Q5JTJ3, selinexor-treated cytoplasm vs control cytoplasm",2.872

# Reference: patent US20250249056A1, “CANCER THERAPIES COMPRISING A NUCLEAR EXPORT INHIBITOR AND AN ONCOLYTIC VIRUS” (priority 2022, published 2025)
